Several values for one entry are separate records, joined by “and”; a condition that tells them apart may be missing. Equal entries are not always repeated.
Legend:
T. cruzi trypomastigotes = assay: T. cruzi trypomastigote viability / rate of action assay (CellTiter-Glo bioluminescence); type: cell-based, Trypanosoma cruzi; details: for EC50: Trypanosoma cruzi; for Hill slope: Trypomastigotes
Procedure: (§1) Tulahuen T. cruzi trypomastigotes were recovered 6 days post infection from the supernatant of harvested infected L6 cells cultures after 3 hours at 37°C. 90 μL of parasite culture at a density of 5 × 10^6 cells in RPMI 1640 media were dispensed into 96 Nunc flat bottom assay plates containing 10 μL of each compound.
Parasite viability was assessed upon 24, 48 and 72 hour incubation at 37°C in 5% CO2 by adding 50 μL of CellTiter-Glo viability reagent to white 96-well microplates. After signal stabilization, bioluminescence was read. Compound concentrations ranged from 0.1 μM to 50 μM and final maximal DMSO percentage in the well was 0.05%. Results were normalized to […] control columns in each plate.

[1] = test system: intracellular T. cruzi amastigotes; assay: Rate of kill, intracellular T. cruzi amastigotes (CPRG, 96-well); type: cell-based, Trypanosoma cruzi; details: Amastigotes; for EC50: Trypanosoma cruzi
Procedure: For rate of kill experiments, in vitro activity against intracellular T. cruzi amastigotes was analyzed at early time points: 24, 48 and 72 hours. The standard colorimetric transgenic assay was established in a 96-well format, with serial dilutions of compounds and 0.05% as the final maximal DMSO percentage per well. In these experiments L6 host cells were included as negative controls and CPRG conversion was monitored at 585 nm using a Versamax microplate reader (Molecular devices).

[2] = test system: T. cruzi Tulahuen C4 trypomastigotes; assay: T. cruzi trypomastigote viability assay (resazurin fluorescence); type: cell-based, Trypanosoma cruzi; details: Tulahuen C4, 72 hours at 37°C
Procedure: as §1
In the fluorescence assay, plates were incubated for 24 and 48 hours after which 10 μL of the resazurin solution were added to each well. Plates were further incubated for 24 hours and fluorescence was measured at 550/590 nm using a Tecan Infinite 200 microplate reader. […] Final maximal DMSO percentage in the well was 0.1% and compound concentrations ranged from 0.2 to 100 μM.

[3] = test system: T. b. brucei 427 bloodstream forms; assay: Resazurin-based T. b. brucei assay; type: cell-based; details: Trypanosoma brucei, 72 h, read-out: EC50 T. brucei
Procedure: Parasites strains adapted to culture in vitro were used. T. b. brucei Lister 427 bloodstream form parasites (information about the identity and genealogy of this strain is available at The Rockefeller University website) were grown in HMI-9 medium supplemented with 10% heat-inactivated fetal bovine serum (iFBS).
Cells in logarithmic phase of growth were added using a Multidrop dispenser (45 μL, 500 bloodstream T. b. brucei parasites per well) to 384-well Corning assay plates already containing 5 μL of each compound and controls, and incubated for 72 hours at 37°C. 10 μL of resazurin were added per well, and the plates were further incubated for 6 hours at 37°C. The final fluorescence was determined at 550–590 nm. Pentamidine at 40 nM and 0.0067% DMSO were used as […] growth controls, respectively.

Plasmodium berghei = test system: Plasmodium berghei; parameters: method as in PMID 34865639; details: Plasmodium berghei murine model; cited from earlier work
T. cruzi epimastigotes = assay: Microscopy analysis of T. cruzi epimastigotes (DAPI cell cycle, DIC morphology); type: cell-based, Trypanosoma cruzi; details: 72-hour drug exposure, DAPI staining
Procedure: For morphological phenotypic analysis and further confirmation of cell cycle analysis by FACS, T. cruzi epimastigotes were grown for 72 hours in a 6-well plate in the presence and absence of drugs. Briefly, 1 × 10^6 parasites of each condition were harvested and fixed in 4% p-formaldehyde at 4°C for 20 minutes, washed twice with cold PBS, and placed on poly-L-lysine-coated slides. Followed by dehydration in methanol, parasite samples were stained and mounted with DAPI Prolong. Digital images were acquired with a Leica DMi8 microscope in Tile Scan mode with […] excitation to quantify DAPI stained nuclei and kinetoplasts of the parasite population. Transmitted light microscopy was used to acquire differential interference contrast (DIC) images (> 80 individual cells in each of two independent experiments).

[4] = parameters: method as in PMID 34865639; details: cited from earlier work
[5] = Trypanosoma cruzi, TULAHUEN, 72 h

## O=C(Cn1ccnc1[N+](=O)[O-])NCc1ccccc1 [Benznidazole, benznidazole]
T. cruzi trypomastigotes; 24 h, 0.0976562 µM, untreated 165925
  RLU Average, trypomastigote viability: 168859 RLU
T. cruzi trypomastigotes; 24 h, 0.195312 µM, untreated 165925
  RLU Average, trypomastigote viability: 163337 RLU
T. cruzi trypomastigotes; 24 h, 0.390625 µM, untreated 165925
  RLU Average, trypomastigote viability: 166320 RLU
T. cruzi trypomastigotes; 24 h, 0.78125 µM, untreated 165925
  RLU Average, trypomastigote viability: 165144 RLU
T. cruzi trypomastigotes; 24 h, 1.5625 µM, untreated 165925
  RLU Average, trypomastigote viability: 164063 RLU
T. cruzi trypomastigotes; 24 h, 3.125 µM, untreated 165925
  RLU Average, trypomastigote viability: 161383 RLU
T. cruzi trypomastigotes; 24 h, 6.25 µM, untreated 165925
  RLU Average, trypomastigote viability: 134179 RLU
T. cruzi trypomastigotes; 24 h, 12.5 µM, untreated 165925
  RLU Average, trypomastigote viability: 39621 RLU
T. cruzi trypomastigotes; 24 h, 25 µM, untreated 165925
  RLU Average, trypomastigote viability: 10652 RLU
T. cruzi trypomastigotes; 24 h, 50 µM, untreated 165925
  RLU Average, trypomastigote viability: 5606 RLU
T. cruzi trypomastigotes; 48 h, 0.0976562 µM, untreated 141819
  RLU Average, trypomastigote viability: 139946 RLU
T. cruzi trypomastigotes; 48 h, 0.195312 µM, untreated 141819
  RLU Average, trypomastigote viability: 134140 RLU
T. cruzi trypomastigotes; 48 h, 0.390625 µM, untreated 141819
  RLU Average, trypomastigote viability: 131074 RLU
T. cruzi trypomastigotes; 48 h, 0.78125 µM, untreated 141819
  RLU Average, trypomastigote viability: 112587 RLU
T. cruzi trypomastigotes; 48 h, 1.5625 µM, untreated 141819
  RLU Average, trypomastigote viability: 83947 RLU
T. cruzi trypomastigotes; 48 h, 3.125 µM, untreated 141819
  RLU Average, trypomastigote viability: 48357 RLU
T. cruzi trypomastigotes; 48 h, 6.25 µM, untreated 141819
  RLU Average, trypomastigote viability: 13088 RLU
T. cruzi trypomastigotes; 48 h, 12.5 µM, untreated 141819
  RLU Average, trypomastigote viability: 3643 RLU
T. cruzi trypomastigotes; 48 h, 25 µM, untreated 141819
  RLU Average, trypomastigote viability: 1831 RLU
T. cruzi trypomastigotes; 48 h, 50 µM, untreated 141819
  RLU Average, trypomastigote viability: 1028 RLU
T. cruzi trypomastigotes; 72 h, 0.0976562 µM, untreated 100126
  RLU Average, trypomastigote viability: 104132 RLU
T. cruzi trypomastigotes; 72 h, 0.195312 µM, untreated 100126
  RLU Average, trypomastigote viability: 98515 RLU
T. cruzi trypomastigotes; 72 h, 0.390625 µM, untreated 100126
  RLU Average, trypomastigote viability: 89377 RLU
T. cruzi trypomastigotes; 72 h, 0.78125 µM, untreated 100126
  RLU Average, trypomastigote viability: 67508 RLU
T. cruzi trypomastigotes; 72 h, 1.5625 µM, untreated 100126
  RLU Average, trypomastigote viability: 34320 RLU
T. cruzi trypomastigotes; 72 h, 3.125 µM, untreated 100126
  RLU Average, trypomastigote viability: 15352 RLU
T. cruzi trypomastigotes; 72 h, 6.25 µM, untreated 100126
  RLU Average, trypomastigote viability: 4824 RLU
T. cruzi trypomastigotes; 72 h, 12.5 µM, untreated 100126
  RLU Average, trypomastigote viability: 2711 RLU
T. cruzi trypomastigotes; 72 h, 25 µM, untreated 100126
  RLU Average, trypomastigote viability: 1262 RLU
T. cruzi trypomastigotes; 72 h, 50 µM, untreated 100126
  RLU Average, trypomastigote viability: 683 RLU
T. cruzi trypomastigotes; 24 h
  EC50: 8.94 µM
  Hill slope: 3.93
T. cruzi trypomastigotes; 48 h
  EC50: 2.05 µM
  Hill slope: 1.66
T. cruzi trypomastigotes; 72 h
  EC50: 1.15 µM
  Hill slope: 2.07
T. cruzi trypomastigotes; 48 h, listed as benznidazole
  Hill slope: below 2.1
T. cruzi trypomastigotes; 72 h, listed as benznidazole
  Hill slope: below 2.1
[1]; 24 h
  Hill slope: 1.06
  EC50: 2.87 µM
[1]; 48 h
  Hill slope: 1.24
  EC50: 1.03 µM
[1]; 72 h
  Hill slope: 1.99
  EC50: 0.89 µM
[2]; [5]
  EC50: 3.93 µM

## C/C1=C\[C@H](C)CCC(=O)/C(C)=C/[C@H](C)C[C@@H](C)CC[C@@H]([C@@H](C)C(=O)O)OC(=O)[C@@H](C)C1 [Strasseriolide A, strasseriolide A]
[3]
  EC50: 273 µM
[2]; [5]
  EC50: > 25 µM

## C/C1=C\[C@H](C)CC[C@@H](O)/C(C)=C/[C@H](C)C[C@@H](C)CC[C@@H]([C@@H](C)C(=O)O)OC(=O)[C@@H](C)C1 [Strasseriolide B, strasseriolide B]
[3]
  EC50: 27 µM
[2]; [5]
  EC50: < 0.2 µM

## C/C1=C\[C@H](C)[C@@H](O)C[C@@H](O)/C(C)=C/[C@H](C)C[C@@H](C)CC[C@@H]([C@@H](C)C(=O)O)OC(=O)[C@@H](C)C1 [Strasseriolide D, strasseriolide D]
Plasmodium berghei
  in vivo antiprotozoal activity: exhibit in vivo antiprotozoal activity
[3]
  EC50: > 100 µM
T. cruzi epimastigotes; EC30, average
  % Cells 0N1K, Average: 1.2%
  % Cells 1N1K1F, Average: 57.325%
  % Cells 1N*1K*1F, Average: 6.55%
  % Cells 1N*2K2F, Average: 2.85%
  % Cells 2N1K, Average: 4.5%
  % Cells 2N2K2F, Average: 26.325%
  % Cells Other, Average: 1.25%
T. cruzi epimastigotes; EC30, single replicates
  % Cells 0N1K, individual replicates: 0% and 2.4%
  % Cells 1N1K1F, individual replicates: 56.25% and 58.4%
  % Cells 1N*1K*1F, individual replicates: 7.5% and 5.6%
  % Cells 1N*2K2F, individual replicates: 2.5% and 3.2%
  % Cells 2N1K, individual replicates: 5% and 4%
  % Cells 2N2K2F, individual replicates: 26.25% and 26.4%
  % Cells Other, individual replicates: 2.5% and 0%
T. cruzi epimastigotes; EC70, average
  % Cells 0N1K, Average: 0.4587%
  % Cells 1N1K1F, Average: 62.2955%
  % Cells 1N*1K*1F, Average: 3.438%
  % Cells 1N*2K2F, Average: 5.902%
  % Cells 2N1K, Average: 3.953%
  % Cells 2N2K2F, Average: 19.5971%
  % Cells Other, Average: 4.355%
T. cruzi epimastigotes; EC70, single replicates
  % Cells 0N1K, individual replicates: 0% and 0.9174%
  % Cells 1N1K1F, individual replicates: 56.701% and 67.8899%
  % Cells 1N*1K*1F, individual replicates: 4.124% and 2.752%
  % Cells 1N*2K2F, individual replicates: 7.216% and 4.587%
  % Cells 2N1K, individual replicates: 5.155% and 2.752%
  % Cells 2N2K2F, individual replicates: 22.6804% and 16.5138%
  % Cells Other, individual replicates: 4.124% and 4.587%
[4]
  liver microsome clearance: low
[2]; [5]
  EC50: 3.4 µM
[2]
  EC50: 3.38 µM
